PubChem BioAssay AID1972 (The Scripps Research Institute Molecular Screening Center, 2009)

Test system: IEC-6 rat intestinal cells viability, luminescence
Assay: PubChem AID 1972

COc1cc2c(c(OC)c1OC)-c1ccc(O)c(=O)cc1C(NC(C)=O)CC2 (stereo unspecified)
IC50: 121 nM
